The values that follow come from ChEMBL document CHEMBL2346588, “Design, synthesis, and biological activity of diaryl ether inhibitors of Toxoplasma gondii enoyl reductase” (Bioorg Med Chem Lett, 2013).

SMILES strings stand for the structures. Values after ≈ are worked out from the molar mass of the structure shown. Active and inactive are the calls of the source. The calls are words filed in the database; no cut-off is given here.

Data set [1] has as its system Toxoplasma gondii. The data set can be described thus: Antiparasitic activity against Toxoplasma gondii type 1 RH expressing YFP infected in HFF assessed as inhibition of [3H]-uracil incorporation after 72 hrs by liquid scintillation counting. It is filed as functional.
In the next data set the test system is HFF. The data set can be described thus: Cytotoxicity against HFF assessed as inhibition of [3H]-thymidine incorporation after 24 hrs by […] assay. It is filed as cell-based. Particulars: human. Background: Incorporation of labelled thymidine or its analogues reports DNA synthesis.
Data set [2] concerns the target T1, Enoyl-acyl carrier reductase (Toxoplasma gondii) (UniProt Q6UCJ9).
T1 sequence (whole entry): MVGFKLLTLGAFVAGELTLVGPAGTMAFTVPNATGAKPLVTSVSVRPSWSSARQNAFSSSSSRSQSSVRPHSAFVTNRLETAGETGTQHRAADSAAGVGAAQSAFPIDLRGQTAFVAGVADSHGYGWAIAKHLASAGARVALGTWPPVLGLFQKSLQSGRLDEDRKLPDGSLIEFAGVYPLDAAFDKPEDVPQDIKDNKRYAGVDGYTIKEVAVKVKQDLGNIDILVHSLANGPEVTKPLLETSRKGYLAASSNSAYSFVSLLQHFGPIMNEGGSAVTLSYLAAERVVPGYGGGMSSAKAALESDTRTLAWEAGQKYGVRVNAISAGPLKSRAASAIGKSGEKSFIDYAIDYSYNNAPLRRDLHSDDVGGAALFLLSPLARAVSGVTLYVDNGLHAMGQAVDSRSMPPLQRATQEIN
The data set can be described thus: Inhibition of Toxoplasma gondii enoyl reductase assessed as conversion of trans-2-acyl-ACP to acyl-ACP at 1 uM.

The target of data set [3] is T2, Enoyl-acyl carrier reductase (Toxoplasma gondii, UniProt Q6UCJ9).
T2 sequence (Q6UCJ9 whole entry): T1 sequence (whole entry)
Put plainly: Inhibition of Toxoplasma gondii enoyl reductase assessed as conversion of trans-2-acyl-ACP to acyl-ACP.

In data set [4] the test system is Plasmodium falciparum. The data set can be described thus: Antimalarial activity against chloroquine-resistant Plasmodium falciparum TM91C235 after 24 hrs by SYBR Green I based fluorescence assay. Conditions: TM91C235, 24 h. The format is functional, organism-based.
Another data set relates to Mus musculus. Put plainly: Toxicity in Toxoplasma gondii infected BALB/c mouse assessed mortality at 75 mg/kg, ip qd for 5 days measured 7 day after infection. It is filed as organism-based. Conditions: in vivo, 168 h. Further details: dose 75 mg/kg, route intraperitoneal.
Data set [5] deals with Toxoplasma gondii. The data set can be described thus: Antiparasitic activity against Toxoplasma gondii infected in BALB/c mouse assessed as reduction of parasite burden at 50 mg/kg, ip qd for 5 days. Further details: dose 50 mg/kg. It is filed as functional, organism-based.
Data set [6] relates to Plasmodium falciparum. The data set can be described thus: Antimalarial activity against Plasmodium falciparum D6 after 24 hrs by SYBR Green I based fluorescence assay. It is filed as functional, organism-based. Particulars: D6, 24 h.
Data set [7] deals with Toxoplasma gondii. The data set can be described thus: Antiparasitic activity against Toxoplasma gondii infected in BALB/c mouse assessed as reduction of parasite burden at 25 mg/kg, ip qd for 5 days. Also noted: dose 25 mg/kg. It is filed as functional, organism-based.

The term MIC50 denotes an inhibitory concentration at the 50% level, which refers to growth in some studies and to a panel of isolates in others. Usually inhibition stands for the change of the read-out against control, counted positive when it falls. What is called IC50 is the concentration that inhibits the measured activity by half.

For `CC(=O)N1CCN(Cc2ccc(Oc3ccc(Cl)cc3O)s2)CC1`, in the data set on Toxoplasma gondii [1], the MIC50 came to 5 µM (≈ 1.83 µg/mL). The INH in the data set with HFF is more than 10 µM. Also, the inhibition in [2] came to 73%. Besides, in data set [3], the IC50 is 965 nM.
In the case of `O=S(=O)(c1ccc(Oc2ccc(Cl)cc2O)cc1)N1CCCC1`, in the data set with Toxoplasma gondii [1], the MIC50 is 10 µM (≈ 3.54 µg/mL). The INH with HFF was more than 10 µM. For the same compound, the inhibition in data set [2] amounted to 78%.
As to `Oc1cc(Cl)ccc1Oc1ccc2ccccc2c1`, the MIC50 with Toxoplasma gondii [1] stood at 10 µM (≈ 2.71 µg/mL). Besides, the INH with HFF is more than 10 µM. For the same compound, in [2], the inhibition was 91%. Besides, the IC50 in data set [3] is 41 nM.
For `CC(=O)N1CCN(c2ccc(Oc3ccc(Cl)cc3O)cc2)CC1`, the IC50 in the data set on Plasmodium falciparum [4] is more than 10 µg/mL; in data set [3], 225 nM; with Plasmodium falciparum [6], more than 10 µg/mL. The MIC50 in the data set on Toxoplasma gondii [1] was 1.5 µM (≈ 0.52 µg/mL). Moreover, in the data set on HFF, the INH was more than 10 µM. Further, in the data set on Mus musculus, the Activity result is “Toxic”. Besides, the result in the data set with Toxoplasma gondii [5] was inactive. For the same compound, the inhibition in data set [2] came to 81%.
On to `Oc1cc(Cl)ccc1Oc1ccc(N2CCOCC2)cc1`, for which the MIC50 with Toxoplasma gondii [1] was more than 10 µM. In addition, in the data set on HFF, the INH was more than 10 µM. Also, the inhibition in data set [2] was 74%.
As to `Cn1cc(C(=O)Nc2ccc(Cl)cc2O)c(C(F)(F)F)n1`, in the data set with Toxoplasma gondii [1], the MIC50 is more than 10 µM. The INH in the data set on HFF is more than 10 µM. In [2], the inhibition amounted to 27%.
Take `O=S(=O)(c1ccc(Oc2ccc(Cl)cc2O)cc1)N1CCCCC1`: the MIC50 in the data set with Toxoplasma gondii [1] came out at 10 µM (≈ 3.68 µg/mL). In addition, in the data set with HFF, the INH was more than 10 µM. Besides, in data set [2], the inhibition came to 81%.
Regarding `Oc1cc(Cl)ccc1Oc1ccc(Cl)cc1Cl` [TRICLOSAN], the MIC50 with Toxoplasma gondii [1] was 5 µM (≈ 1.45 µg/mL). Moreover, the INH in the data set on HFF is more than 10 µM. In the data set with Toxoplasma gondii [7], the outcome was Active.
Consider `Oc1cc(Cl)ccc1Oc1ccc(C(F)(F)F)cc1Cl`, for which the MIC50 in the data set with Toxoplasma gondii [1] worked out at 4 µM (≈ 1.29 µg/mL). The INH in the data set with HFF is more than 10 µM. In addition, in data set [2], the inhibition was 95%. For the same compound, in [3], the IC50 came out at 30 nM.
On to `O=C(O)c1ccc(Oc2ccc(Cl)cc2O)o1`, for which the MIC50 in the data set with Toxoplasma gondii [1] was more than 10 µM. Further, the INH in the data set on HFF was more than 10 µM. Besides, the inhibition in data set [2] turned out to be 79%.
`Oc1cc(Cl)ccc1Oc1ccc2ncccc2c1`: in the data set on Toxoplasma gondii [1], the MIC50 amounted to 7.5 µM (≈ 2.04 µg/mL). Also, in the data set with HFF, the INH was more than 10 µM. Further, the inhibition in data set [2] is 87%. Besides, the IC50 in data set [3] was 135 nM.
As to `O=C(c1ccc(Oc2ccc(Cl)cc2O)s1)N1CCNCC1`, the MIC50 in the data set on Toxoplasma gondii [1] was more than 10 µM. Besides, the INH with HFF is more than 10 µM. In addition, the inhibition in [2] came out at 60%.
As to `CN1CCN(Cc2ccc(Oc3ccc(Cl)cc3O)cc2)CC1`, in the data set with Toxoplasma gondii [1], the MIC50 was more than 10 µM. Also, the INH in the data set on HFF was more than 10 µM. In addition, the inhibition in data set [2] stood at 32%.
Take `CNC(=O)c1ccc(Oc2ccc(Cl)cc2O)o1`: the MIC50 in the data set with Toxoplasma gondii [1] is more than 10 µM. Besides, in the data set with HFF, the INH is more than 10 µM. In addition, the inhibition in [2] worked out at 46%.
For the compound `O=C(O)c1ccc(Oc2ccc(Cl)cc2O)s1`, the MIC50 in the data set with Toxoplasma gondii [1] worked out at 10 µM (≈ 2.71 µg/mL). Further, the INH in the data set with HFF is more than 10 µM. The inhibition in data set [2] was 48%.
With `CN1CCN(c2ccc(Oc3ccc(Cl)cc3O)cc2)CC1`, the INH with HFF is more than 10 µM. For the same compound, in data set [2], the inhibition was determined as 25%.
Take `CCNC(=O)c1ccc(Oc2ccc(Cl)cc2O)s1`: in the data set on HFF, the INH was determined as 10 µM. Further, the inhibition in data set [2] was 75%.
Regarding `CC(C)(C)OC(=O)N1CCN(C(=O)c2ccc(Oc3ccc(Cl)cc3O)s2)CC1`, the MIC50 in the data set with Toxoplasma gondii [1] is more than 10 µM. Moreover, the INH with HFF is more than 10 µM. Further, the inhibition in data set [2] was 76%.
For the compound `Cc1cc(NC(=O)c2ccc(Oc3ccc(Cl)cc3O)o2)no1`, the MIC50 in the data set with Toxoplasma gondii [1] is 10 µM (≈ 3.35 µg/mL). The INH with HFF was more than 10 µM. Further, in [2], the inhibition is 90%. For the same compound, in data set [3], the IC50 is 58 nM.
On to `CC(=O)N1CCN(C(=O)c2ccc(Oc3ccc(Cl)cc3O)o2)CC1`, for which, in the data set on Toxoplasma gondii [1], the MIC50 is more than 10 µM. Also, the INH with HFF was more than 10 µM. Also, the inhibition in [2] was found to be 45%.
